Experimental data from patent publication US8895504B2, “Amylin derivatives” (priority 2008, dated 2014).
pEC50: −log10 of the molar value. *1 amine or outer side, *2 acyl side, *3 side chain or, on linkers, in order; H or OH if unused. Where a SMILES comes first, the peptide text is derived from it. Bridges are numbered along the chain shown (N, C = ends). The star is where a group is joined. C20 diacid = O=C(O)CCCCCCCCCCCCCCCCCCC(=O)*; C18 diacid = O=C(O)CCCCCCCCCCCCCCCCC(=O)*; γGlu = O=C(O)[C@H](CCC(=O)[*:2])N[*:1]; AEEA = NCCOCCOCC(=O)O

Each compound was assayed against T1, Amylin 3(a) receptor (human calcitonin receptor (CTa) and RAMP-3) (Homo sapiens, UniProt O60896+P30988) (assay: Luciferase assay (III), BHK Amylin 3(a)//CRE-luc cells). Conditions: BHK cells with Amylin 3(a) receptor and CRE luciferase reporter, 4 hours incubation; read-out: Potency Luciferase.
T1 construct: expressed in transfected cells; host or cells: BHK570 cells, stably transfected with a CRE-luciferase reporter
Assay type: cell-based
Method in brief: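 BHK570 cells stably expressing CTa, RAMP-3 and a CRE-luciferase reporter, seeded at about 20,000 cells/well and grown overnight. Cells were exposed to standard or sample for 4 h at 37° C in phenol red-free DMEM with 10% FBS and 10 mM Hepes, pH 7,4. Luminescence was read after 30 min LucLite at room temperature.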

T1 sequence (O60896 24-148): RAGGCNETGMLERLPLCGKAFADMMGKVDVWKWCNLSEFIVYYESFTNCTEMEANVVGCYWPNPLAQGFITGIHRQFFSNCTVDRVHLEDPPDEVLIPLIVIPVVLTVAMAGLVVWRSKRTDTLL
T1 sequence (P30988 25-474): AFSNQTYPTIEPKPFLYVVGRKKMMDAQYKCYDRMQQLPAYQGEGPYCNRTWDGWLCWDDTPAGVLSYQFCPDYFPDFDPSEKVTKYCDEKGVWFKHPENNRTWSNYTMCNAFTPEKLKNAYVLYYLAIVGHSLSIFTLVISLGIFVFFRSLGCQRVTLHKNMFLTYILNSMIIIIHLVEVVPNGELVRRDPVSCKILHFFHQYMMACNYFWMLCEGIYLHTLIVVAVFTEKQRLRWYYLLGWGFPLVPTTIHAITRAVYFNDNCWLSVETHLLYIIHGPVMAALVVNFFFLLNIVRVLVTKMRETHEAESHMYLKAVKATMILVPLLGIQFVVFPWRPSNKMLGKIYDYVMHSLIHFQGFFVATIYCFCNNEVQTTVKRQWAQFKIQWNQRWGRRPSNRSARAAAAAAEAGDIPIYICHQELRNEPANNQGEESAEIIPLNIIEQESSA

Structure (SMILES)	pEC50
CC[C@H](C)[C@H](NC(=O)[C@@H]1CCCN1C(=O)CNC(=O)[C@H](Cc1ccccc1)NC(=O)[C@H](CC(N)=O)NC(=O)[C@H](CCC(N)=O)NC(=O)[C@H](CO)NC(=O)[C@H](CO)NC(=O)[C@H](Cc1c[nH]cn1)NC(=O)[C@H](CCCNC(=N)N)NC(=O)[C@H](CC(C)C)NC(=O)[C@H](Cc1ccccc1)NC(=O)[C@H](CC(N)=O)NC(=O)[C@H](C)NC(=O)[C@H](CC(C)C)NC(=O)[C@H](CCCNC(=N)N)NC(=O)[C@H](CCC(N)=O)NC(=O)[C@@H](NC(=O)[C@H](C)NC(=O)[C@@H]1CSSC[C@H](NC(=O)[C@H](CCCNC(=N)N)NC(=O)[C@H](Cc2c[nH]cn2)NC(=O)[C@H](Cc2c[nH]cn2)NC(=O)COCCOCCNC(=O)CC[C@H](NC(=O)CCCCCCCCCCCCCCCCCCC(=O)O)C(=O)O)C(=O)N[C@@H](CC(N)=O)C(=O)N[C@@H]([C@@H](C)O)C(=O)N[C@@H](C)C(=O)N[C@@H]([C@@H](C)O)C(=O)N1)[C@@H](C)O)C(=O)N[C@@H](CC(C)C)C(=O)N1CCC[C@H]1C(=O)N1CCC[C@H]1C(=O)N[C@H](C(=O)N[C@@H](CC(N)=O)C(=O)N[C@H](C(=O)NCC(=O)N[C@@H](CO)C(=O)N[C@@H](CC(N)=O)C(=O)N[C@H](C(=O)N[C@@H](Cc1ccc(O)cc1)C(N)=O)[C@@H](C)O)C(C)C)[C@@H](C)O [Example 65, N-alpha-[2-(2-{2-[4-(S)-Carboxy-4-(19-carboxynonadecanoylamino)butyrylamino]ethoxy}ethoxy)acetyl]-His-His-[Arg1,Arg17,Gln21]-pramlintide] ({C20 diacid-γGlu-AEEA}-HHRCNTATCATQRLANFLRHSSQNFGPILPPTNVGSNTY-NH2; disulfide 4-9)	10.00
CC(C)C[C@H](NC(=O)[C@H](CCCNC(=N)N)NC(=O)[C@H](CCC(N)=O)NC(=O)[C@@H](NC(=O)[C@H](C)NC(=O)[C@@H]1CSSC[C@H](NC(=O)[C@H](CCC(=O)O)NC(=O)[C@H](CCCNC(=N)N)NC(=O)[C@H](CCC(=O)O)NC(=O)CC[C@H](NC(=O)CCCCCCCCCCCCCCCCCCC(=O)O)C(=O)O)C(=O)N[C@@H](CC(N)=O)C(=O)N[C@@H]([C@@H](C)O)C(=O)N[C@@H](C)C(=O)N[C@@H]([C@@H](C)O)C(=O)N1)[C@@H](C)O)C(=O)N[C@@H](C)C(=O)N[C@@H](CC(=O)O)C(=O)N[C@@H](Cc1ccccc1)C(=O)N[C@@H](CC(C)C)C(=O)N[C@@H](Cc1c[nH]cn1)C(=O)N[C@@H](Cc1c[nH]cn1)C(=O)N[C@@H](CO)C(=O)N[C@@H](CO)C(=O)N[C@@H](CCC(N)=O)C(=O)N[C@@H](CC(N)=O)C(=O)N[C@@H](Cc1ccccc1)C(=O)NCC(=O)N[C@@H](C)C(=O)N1CCC[C@H]1C(=O)N[C@@H](CC(C)C)C(=O)N[C@@H](CO)C(=O)N[C@@H](CO)C(=O)N[C@H](C(=O)N[C@@H](CC(N)=O)C(=O)N[C@H](C(=O)NCC(=O)N[C@@H](CO)C(=O)N[C@@H](CC(N)=O)C(=O)N[C@H](C(=O)N[C@@H](Cc1ccc(O)cc1)C(N)=O)[C@@H](C)O)C(C)C)[C@@H](C)O [Example 48, N-alpha-[(S)-4-Carboxy-4-(19-carboxynonadecanoylamino)butyryl]-Glu-Arg-[Glu1,Asp14,His17,Gln21,Ala25,Pro26,Ser28,Ser29]-pramlintide] ({C20 diacid-γGlu}-ERECNTATCATQRLADFLHHSSQNFGAPLSSTNVGSNTY-NH2; disulfide 4-9)	10.22
CC[C@H](C)[C@H](NC(=O)[C@@H]1CCCN1C(=O)CNC(=O)[C@H](Cc1ccccc1)NC(=O)[C@H](CC(N)=O)NC(=O)[C@H](CC(N)=O)NC(=O)[C@H](CO)NC(=O)[C@H](CO)NC(=O)[C@H](Cc1c[nH]cn1)NC(=O)[C@H](Cc1c[nH]cn1)NC(=O)[C@H](CC(C)C)NC(=O)[C@H](Cc1ccccc1)NC(=O)[C@H](CC(N)=O)NC(=O)[C@H](C)NC(=O)[C@H](CC(C)C)NC(=O)[C@H](CCCNC(=N)N)NC(=O)[C@H](CCC(N)=O)NC(=O)[C@@H](NC(=O)[C@H](C)NC(=O)[C@@H]1CSSC[C@H](NC(=O)[C@H](Cc2c[nH]cn2)NC(=O)[C@H](Cc2c[nH]cn2)NC(=O)[C@H](Cc2c[nH]cn2)NC(=O)CC[C@H](NC(=O)CCCCCCCCCCCCCCCCC(=O)O)C(=O)O)C(=O)N[C@@H](CC(N)=O)C(=O)N[C@@H]([C@@H](C)O)C(=O)N[C@@H](C)C(=O)N[C@@H]([C@@H](C)O)C(=O)N1)[C@@H](C)O)C(=O)N[C@@H](CC(C)C)C(=O)N1CCC[C@H]1C(=O)N1CCC[C@H]1C(=O)N[C@H](C(=O)N[C@@H](CC(N)=O)C(=O)N[C@H](C(=O)NCC(=O)N[C@@H](CO)C(=O)N[C@@H](CC(N)=O)C(=O)N[C@H](C(=O)N[C@@H](Cc1ccc(O)cc1)C(N)=O)[C@@H](C)O)C(C)C)[C@@H](C)O [Example 60, N-alpha-[(S)-4-Carboxy-4-(17-carboxyheptadecanoylamino)butyryl]-His-His-[His1,His17]-pramlintide] ({C18 diacid-γGlu}-HHHCNTATCATQRLANFLHHSSNNFGPILPPTNVGSNTY-NH2; disulfide 4-9)	10.30
CC[C@H](C)[C@H](NC(=O)[C@@H]1CCCN1C(=O)CNC(=O)[C@H](Cc1ccccc1)NC(=O)[C@H](CC(N)=O)NC(=O)[C@H](CCC(N)=O)NC(=O)[C@H](CO)NC(=O)[C@H](CO)NC(=O)[C@H](Cc1c[nH]cn1)NC(=O)[C@H](Cc1c[nH]cn1)NC(=O)[C@H](CC(C)C)NC(=O)[C@H](Cc1ccccc1)NC(=O)[C@H](CC(N)=O)NC(=O)[C@H](C)NC(=O)[C@H](CC(C)C)NC(=O)[C@H](CCCNC(=N)N)NC(=O)[C@H](CCC(N)=O)NC(=O)[C@@H](NC(=O)[C@H](C)NC(=O)[C@@H]1CSSC[C@H](NC(=O)[C@H](CCCNC(=N)N)NC(=O)[C@H](Cc2c[nH]cn2)NC(=O)[C@H](Cc2c[nH]cn2)NC(=O)COCCOCCNC(=O)CC[C@H](NC(=O)CCCCCCCCCCCCCCCCCCC(=O)O)C(=O)O)C(=O)N[C@@H](CC(N)=O)C(=O)N[C@@H]([C@@H](C)O)C(=O)N[C@@H](C)C(=O)N[C@@H]([C@@H](C)O)C(=O)N1)[C@@H](C)O)C(=O)N[C@@H](CC(C)C)C(=O)N1CCC[C@H]1C(=O)N1CCC[C@H]1C(=O)N[C@H](C(=O)N[C@@H](CC(N)=O)C(=O)N[C@H](C(=O)NCC(=O)N[C@@H](CO)C(=O)N[C@@H](CC(N)=O)C(=O)N[C@H](C(=O)N[C@@H](Cc1ccc(O)cc1)C(N)=O)[C@@H](C)O)C(C)C)[C@@H](C)O [Example 59, N-alpha-[2-(2-{2-[4-(S)-Carboxy-4-(19-carboxynonadecanoylamino)butyrylamino]ethoxy}ethoxy)acetyl]-His-His-[Arg1His17,Gln21]-pramlintide] ({C20 diacid-γGlu-AEEA}-HHRCNTATCATQRLANFLHHSSQNFGPILPPTNVGSNTY-NH2; disulfide 4-9)	10.22

The remaining lines, values ahead:

pEC50	Structure (SMILES)
10.00	CC[C@H](C)[C@H](NC(=O)[C@@H]1CCCN1C(=O)CNC(=O)[C@H](Cc1ccccc1)NC(=O)[C@H](CC(N)=O)NC(=O)[C@H](CCC(N)=O)NC(=O)[C@H](CO)NC(=O)[C@H](CO)NC(=O)[C@H](Cc1c[nH]cn1)NC(=O)[C@H](CCCNC(=N)N)NC(=O)[C@H](CC(C)C)NC(=O)[C@H](Cc1ccccc1)NC(=O)[C@H](CC(N)=O)NC(=O)[C@H](C)NC(=O)[C@H](CC(C)C)NC(=O)[C@H](CCCNC(=N)N)NC(=O)[C@H](CCC(N)=O)NC(=O)[C@@H](NC(=O)[C@H](C)NC(=O)[C@@H]1CSSC[C@H](NC(=O)[C@H](CCCNC(=N)N)NC(=O)[C@H](Cc2c[nH]cn2)NC(=O)[C@H](Cc2c[nH]cn2)NC(=O)[C@H](CCC(=O)O)NC(=O)CC[C@H](NC(=O)CCCCCCCCCCCCCCCCCCC(=O)O)C(=O)O)C(=O)N[C@@H](CC(N)=O)C(=O)N[C@@H]([C@@H](C)O)C(=O)N[C@@H](C)C(=O)N[C@@H]([C@@H](C)O)C(=O)N1)[C@@H](C)O)C(=O)N[C@@H](CC(C)C)C(=O)N1CCC[C@H]1C(=O)N1CCC[C@H]1C(=O)N[C@H](C(=O)N[C@@H](CC(N)=O)C(=O)N[C@H](C(=O)NCC(=O)N[C@@H](CO)C(=O)N[C@@H](CC(N)=O)C(=O)N[C@H](C(=O)N[C@@H](Cc1ccc(O)cc1)C(N)=O)[C@@H](C)O)C(C)C)[C@@H](C)O [Example 68, N-alpha-[(S)-4-Carboxy-4-(19-carboxynonadecanoylamino)butyryl]-Glu-His-His-[Arg1,Arg17,Gln21]-pramlintide] ({C20 diacid-γGlu}-EHHRCNTATCATQRLANFLRHSSQNFGPILPPTNVGSNTY-NH2; disulfide 5-10)
10.10	CC[C@H](C)[C@H](NC(=O)[C@@H]1CCCN1C(=O)CNC(=O)[C@H](Cc1ccccc1)NC(=O)[C@H](CC(N)=O)NC(=O)[C@H](CC(N)=O)NC(=O)[C@H](CO)NC(=O)[C@H](CO)NC(=O)[C@H](Cc1c[nH]cn1)NC(=O)[C@H](Cc1c[nH]cn1)NC(=O)[C@H](CC(C)C)NC(=O)[C@H](Cc1ccccc1)NC(=O)[C@H](CC(N)=O)NC(=O)[C@H](C)NC(=O)[C@H](CC(C)C)NC(=O)[C@H](CCCNC(=N)N)NC(=O)[C@H](CCC(N)=O)NC(=O)[C@@H](NC(=O)[C@H](C)NC(=O)[C@@H]1CSSC[C@H](NC(=O)[C@H](CCCCN)NC(=O)[C@H](CCCNC(=N)N)NC(=O)CC[C@H](NC(=O)CCCCCCCCCCCCCCCCCCC(=O)O)C(=O)O)C(=O)N[C@@H](CC(N)=O)C(=O)N[C@@H]([C@@H](C)O)C(=O)N[C@@H](C)C(=O)N[C@@H]([C@@H](C)O)C(=O)N1)[C@@H](C)O)C(=O)N[C@@H](CC(C)C)C(=O)N1CCC[C@H]1C(=O)N1CCC[C@H]1C(=O)N[C@H](C(=O)N[C@@H](CC(N)=O)C(=O)N[C@H](C(=O)NCC(=O)N[C@@H](CO)C(=O)N[C@@H](CC(N)=O)C(=O)N[C@H](C(=O)N[C@@H](Cc1ccc(O)cc1)C(N)=O)[C@@H](C)O)C(C)C)[C@@H](C)O [Example 17, N-alpha-[(S)-4-Carboxy-4-(19-carboxynonadecanoylamino)butyryl]-Arg-[His17]-pramlintide] ({C20 diacid-γGlu}-RKCNTATCATQRLANFLHHSSNNFGPILPPTNVGSNTY-NH2; disulfide 3-8)
